Measured values taken from patent US8096419B2, “Compound” (PCI Biotech AS, priority 2001, dated 2012).
Entries after “also recorded” stand apart in the source; their conditions may differ.

Experiments:
[1] = Absorption spectra on photochemical reduction of TPPS2a; assay type: physicochemical; conditions: benzene/TEA, peak shifted from 646 nm to 655 nm
Method: A mixture of 950 μl benzene/triethylamine (TEA) (18:7), 32 μl dimethyl sulfoxide (DMSO) and 18 μl TPPS2a (from a solution of 1 mg/ml in DMSO) was prepared and saturated with nitrogen for 5 min in a 1 ml cuvette. The mixture was then exposed to light from a 500 W high pressure Xenon lamp fitted to a Bausch and Lomb grating monochromator. The cuvette was exposed to 545±15 nm light at 15 W/m^2. The fluence rate was monitored by means of a UDT 11 A photodetector with a 223 radiometric filter. The absorption spectra was measured regularly by a Perkin-Elmer Lambda 15 UV/VIS spectrophotometer. The light pass was 1 cm.
In accordance with the method described by Harel et al. (Photochem. Photobiol. 23: 337-341, 1976), TPPS2a was exposed to light in a solution of triethylamine (TEA) in benzene saturated with nitrogen. The solution was exposed to light of 545 nm in a cuvette as described above in “Materials and Methods”.

[2] = tested on: V79 cells; experiment: Inhibition of protein synthesis by [3H]-leucine incorporation (PCI of gelonin); assay type: cell-based, Chinese hamster
Method: (§1) Cells of the established line V79 (ATCC CCL-93) derived from Chinese hamster lung fibroblasts were used. The cells were grown in MEM medium containing 10% foetal calf serum (FCS from Gibco, Paisley, UK), 100 U ml^−1 penicillin and 100 μg ml^−1 streptomycin (Gibco) at 37° C. in an incubator flushed with 5% CO2 in air. The cells were subcultured twice a week.
(§2) The cells were inoculated in 25 cm^2 flasks (Nunclon, Denmark) containing MEM medium with 10% FCS and left at 37° C. for 4-5 hours for proper attachment to the substratum. Subsequently, the cells were washed 3 times with medium and exposed to 1 μg/ml TPPS2a or TPCS2a in serum-containing medium for 18 hours. The cells were subsequently washed 3 times with the sensitizer-free medium and incubated for 1 hour before light exposure. The cells were then exposed to red light (Phillips TL 20 W/09) filtered through a Cinemoid 35 filter or blue light (Appl. Photophysics, Nood. 3026, London). The fluence rates reaching the cells were 1.35 mW/cm^2 and 1.5 mW/cm^2 from the red and the blue lamps respectively.
Cell survival was measured by the colony-forming test as described by Berg et al. (Photochem. Photobiol. 53: 203-210, 1991). 1500 cells were inoculated in 25 cm^2 plastic tissue-culture flasks and treated with the photosensitizer and light as described above. After photochemical treatment the V79 cells were left for 5 days at 37° C. in serum-containing culture medium to allow for formation of countable colonies. The cells were then fixed in ethanol, stained with methylene blue and the colonies counted. Inhibition of protein synthesis was assessed by [^3H]-leucine incorporation into proteins, measured at 24 hours post light exposure as described by Llorente et al. (FEBS Lett. 431: 200-204, 1998).

[3] = tested on: V79 cells; experiment: Cell survival by colony-forming test after photosensitizer and light; assay type: cell-based, Chinese hamster
Method: as §1
as §2, with “The fluence rates reaching the cells were 1.35 mW/cm^2 and 1.5 mW/cm^2 from the red and the blue lamps respectively.” left out
Cell survival was measured by the colony-forming test as described by Berg et al. (Photochem. Photobiol. 53: 203-210, 1991). […] The cells were then fixed in ethanol, stained with methylene blue and the colonies counted. Inhibition of protein synthesis was assessed by [^3H]-leucine incorporation into proteins, measured at 24 hours post light exposure as described by Llorente et al. (FEBS Lett. 431: 200-204, 1998).

[4] = tested on: V79 cells; conditions: Berg et al. Cancer Res. 59: 1180-1183, 1999; cited from earlier work

Tetraphenyl chlorin disulfonate [TPCS2a]
increase in the extinction coefficient of band I of the Q-bands versus TPPS2a [1]: 5.8 fold
potentiation of the cytotoxicity of gelonin by TPCS2a and light ([2]; 1 μg/ml TPCS2a plus 1 μg/ml gelonin, red light, protein synthesis 24 hours after exposure to light): strongly potentiate
reduction in protein synthesis induced by TPCS2a alone ([2]; 1 μg/ml TPCS2a, without gelonin): 20%
sensitivity of treated cells to photoinactivation with blue light relative to TPPS2a ([3]; 18 hours incubation with sensitizer, 1 hour sensitizer-free medium, blue light, versus TPPS2a): equally sensitive; also recorded: equally efficient
reduction induced by TPCS2a alone in the clonogenicity assay ([3]; TPCS2a alone): not observed

gelonin: type I ribosome-inactivating protein toxin, transfer molecule for PCI
reduction of protein synthesis by gelonin alone ([2]; 1 μg/ml gelonin for 18 hours): about 10%
toxicity of gelonin alone or in combination with light (literature) [4]: low toxicity
